The values that follow come from article PMC6332026, “Synthesis and Pharmacochemistry of New Pleiotropic Pyrrolyl Derivatives” (Molecules, 2015).

Series [1] is described as follows: Lipophilicity as RM values by reverse-phase thin layer chromatography (RPTLC). The class given is physicochemical. The note with it: methanol/water 75/25 v/v with ammonia drops. The source says:
Since lipophilicity is a significant physicochemical property determining the absorption, distribution, metabolism and excretion properties (ADME) of drugs, we attempted to determine experimentally the lipophilicity as RM values with reverse-phase thin layer chromatography (RPTLC). Lipophilicity was also theoretically calculated as Clog P values. According to the calculated Clog P values, the most lipophilic compounds were 2iii (6.37) and 2v (6.04). However, this observation was not supported by the RM values, since Compound 2iii presented very low lipophilicity (−0.061). Furthermore, the lipophilicity of Compound 2v could not be determined experimentally under the reported conditions. Attempts to correlate Clog P and RM values failed. From our results (Table 2), it can be concluded that RM values could not be used as a successful relative measure of the overall lipophilic/hydrophilic properties of these molecules. Tentatively, this can be attributed to the different nature of the hydrophilic and lipophilic phases in the two systems. Clog P refers to n-octanol/water, whereas RM in this case refers to methanol/water. Moreover, it is likely that pyrrole derivatives form hydrogen bonds within the hydrophilic phase.
Reverse-phase thin layer chromatography (RPTLC) was used for the determination of RM values. Silica gel plates were saturated with 5% v/v liquid paraffin in petroleum ether, and the mobile phase was methanol/water (75/25 v/v) with the addition of ammonia drops. Spots were detected under UV light. RM values were determined by the corresponding Rf values (from five measurements for each compound) using the equation [43]: RM = log[(1/Rf) − 1](1)

The nature of series [2]: Inhibition of heme-dependent lipid peroxidation of linoleic acid (TBA method). The note with it: pH 7.4, 37 °C; read-out: LP IC50 (inhibition of heme-dependent lipid peroxidation of linoleic acid). The procedure: The anti-lipid peroxidation activity was determined through the inhibition of heme-dependent lipid peroxidation. The peroxidation of sodium linoleate is induced from a mixture of heme and hydrogen peroxide, which produces free radicals from the side chains of amino acids. The assay is performed at pH 7.4 with a phosphate buffer, and the products of peroxidation are identified with the thiobarbituric acid method (TBA). In particular, malonic dialdehyde, a final product of lipid peroxidation, reacts with TBA and forms a colored product, whose absorbance is measured at 535 nm. […] Compounds 2ii and 2vi with low Clog P values are weak inhibitors of lipid peroxidation. It seems that the increase of volume of Ar^1, measured as molar refractivity MR (Ar^1), enhances IC50 values and reduces the inhibitory activity (2i and 2iii; and 2ii, 2iv and 2vi). For derivatives 2iv and 2v, the presence of an electron-acceptor, e.g., a chloro-substituent on the phenyl ring (Ar^2), diminishes the anti-lipid peroxidation activity.
Firstly, 0.4 mL of heme (50 μΜ), 0.25 mL of sodium linoleate (400 μΜ), 0.1 mL of the solutions of the tested compounds (concentrations varying from 10–100 μΜ in DMSO) and 0.25 mL of H2O2 (500 μΜ) were incubated for 10 min in 37 °C in a phosphate buffer (KH2PO4–KOH 50 mM, pH 7.4). The peroxidation products were identified with the reaction of thiobarbituric acid, by adding successively 0.5 mL of 40% trichloroacetic acid (TCA) and 0.5 mL of 2% of thiobarbituric acid (TBA). The addition was followed by stirring and heating at 90 °C for 20 min, and then, 1 mL of acetic acid and 1 mL of chloroform were added and the absorbance measured at 535 nm. IC50 values were determined.

For a further series, the target named is T1, interleukin-6 (IL-6) (Mus musculus, UniProt P08505).
T1 construct: purchased Cayman Item No. 583371
T1 sequence (P08505 25-211): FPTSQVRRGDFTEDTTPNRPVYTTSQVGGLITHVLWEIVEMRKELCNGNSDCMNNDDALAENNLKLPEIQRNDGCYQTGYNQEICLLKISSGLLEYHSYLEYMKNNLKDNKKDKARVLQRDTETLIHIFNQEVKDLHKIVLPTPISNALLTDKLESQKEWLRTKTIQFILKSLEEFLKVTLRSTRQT
The series can be described thus: Inhibition of interleukin-6 (immunometric double antibody sandwich EIA). Type of series: biochemical. The note with it: compound 10 μM. The procedure: The assay used for the inhibition of IL-6 is based on an immunometric double antibody method (sandwich technique). […] Both compounds gave satisfactory biological responses, both in high and in low concentrations of IL-6 (Table 8).
The method was based on an immunometric double antibody sandwich technique. Each well of the microwell plate was coated with a specific for mouse IL-6 rat monoclonal antibody. Tested compounds at 10 μΜ and standards were incubated in the wells, and after rinsing, a second monoclonal antibody was added, which was conjugated with biotin and detected the captured IL-6. The recognition of double antibody sandwiches was done with HRP-conjugated streptavidin. The concentration of IL-6 was determined by measuring the enzymatic activity of HRP using the chromogenic substrate TMB (3,3′,5,5′-tetramethylbenzidine). The absorbance of the reaction product was measured at 450 nm, and the intensity of the color was directly proportional to the amount of bound HRP-streptavidin conjugate, which was proportional to the concentration of IL-6.

For the next series, the target named is T2, trypsin (Bos taurus, UniProt P00760).
T2 construct: purchased Sigma Chemical, Co. (St. Louis, MO, USA); host or cells: bovine pancreas
T2 sequence (P00760 24-246): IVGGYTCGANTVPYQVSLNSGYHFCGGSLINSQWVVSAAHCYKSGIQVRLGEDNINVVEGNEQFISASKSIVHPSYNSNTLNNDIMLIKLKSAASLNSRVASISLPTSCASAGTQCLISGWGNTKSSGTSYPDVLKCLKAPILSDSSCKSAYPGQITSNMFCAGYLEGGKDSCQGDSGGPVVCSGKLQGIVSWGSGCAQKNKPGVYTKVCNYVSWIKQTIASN
The series can be described thus: Inhibition of the proteolytic activity of trypsin. Type of series: biochemical. The note with it: bovine albumin substrate, pH 7.6; read-out: TP IC50 (inhibition of trypsin). The source says:
Trypsin is an enzyme with an active role in inflammation. Thus, we studied the anti-proteolytic ability of the pyrrole derivatives, using salicylic acid as a reference compound. […] Comparing Compounds 2iv and 2v, the insertion of an electron-acceptor substituent (Cl) on the phenyl ring (substituent Ar^2) and the simultaneous increase of the volume of substituent Ar^2 (expressed as molar refractivity) led to an enhancement of the anti-proteolytic activity.
Carrageenan, type K, was commercially available. Cycloxygenase-2 (COX-2) and interleukin-6 (IL-6) EIA Kit, Item No. 583371 were purchased from Cayman. Trolox was obtained from Aldrich Chemical Co. (Milwaukee, WI, USA). All starting materials were obtained from commercial sources, and they were used without further purification.
The tested compounds (concentrations varying from 10 μΜ–100 μΜ in DMSO) were dissolved in a phosphate buffer (0.1 M K2HPO4–NaH2PO4·2H2O, pH = 7.6), and 0.2 mL of trypsin 0.075 mg/mL were added. The mixture was incubated at room temperature for 20 min, and then, 1 mL of bovine albumin (6 g/100 mL) was added. The mixture was incubated at 37 °C for 30 min. The reaction was stopped with the addition of 1 mL of trichloroacetic acid (5% w/w) Separation of the phases followed, with measurement of the supernatants at 280 nm at room temperature. IC50 values were determined.

`O=C(c1cccs1)c1c[nH]cc1-c1cccc(Oc2ccccc2)c1` [Compound 2i, [4-(3-Phenoxyphenyl)-1H-pyrrol-3-yl](thien-2-yl)methanone]: the RM in series [1] was 0.091. Further, the IC50 (usually the concentration at which inhibition is half-maximal) came to 40 µM in series [2] and 60 µM on trypsin. The inhibition (commonly the share of the control response that was lost under treatment) at 10 µM on interleukin-6 (IL-6) (IL-6 187.5 pg/mL) worked out at 99%; against interleukin-6 (IL-6) (IL-6 375.0 pg/mL), 99%; against interleukin-6 (IL-6) (IL-6 750.0 pg/mL), 98%; against interleukin-6 (IL-6) (IL-6 1500 pg/mL) it was 99%.
Take `O=C(c1cccs1)c1c[nH]cc1-c1ccc(OCc2ccc(Br)cc2)cc1` [Compound 2iii, (4-{4-[(4-Bromobenzyl)oxy]phenyl}-1H-pyrrol-3-yl)(thien-2-yl)methanone]: the RM in series [1] is given as −0.061. Besides, the IC50 amounted to 100 µM in series [2] and 9 µM on trypsin.
In series [1], `O=C(c1ccccc1)c1c[nH]cc1-c1cccc2ccccc12` [Compound 2iv, [4-(Naphth-1-yl)-1H-pyrrol-3-yl](phenyl)methanone] registered an RM of −0.149. For the same compound, the results for the IC50 (in series [2]; at trypsin) were 72 µM and 65 µM, respectively.
As for `O=C(c1ccc(Cl)cc1)c1c[nH]cc1-c1cccc2ccccc12` [Compound 2v, (4-Chlorophenyl)[4-(naphth-1-yl)-1H-pyrrol-3-yl]methanone], the IC50 is 150 µM in series [2] and 8 µM at trypsin. Further, the inhibition at 10 µM against interleukin-6 (IL-6) (IL-6 375.0 pg/mL) was determined as 99%; against interleukin-6 (IL-6) (IL-6 750.0 pg/mL), 99%; at interleukin-6 (IL-6) (IL-6 1500 pg/mL) it was 100%.
